From patent US8952024B2, “Herbicidal pyrimidone derivatives” (E I du Pont de Nemours and Company, priority 2009, dated 2015)

Experiments:
Assay type in all cases: in vivo
[1] = system: barnyardgrass (Echinochloa crus-galli); experiment: Test B flooded paddy test; details: for Plant response rating, Flood, Barnyardgrass: 250 g ai/ha, flooded paddy test, visual rating on 0 to 100 scale (0 no effect, 100 complete control) after 13 to 15 days; for Plant response rating, Barnyardgrass: Flood (flooded paddy test), 13 to 15 days
Summary of the method: (§1)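 Post-flood paddy application: compounds are introduced into water 3 cm deep over the soil, reaching plants at the 2-leaf stage. The water level is maintained, and after 13–15 days under greenhouse conditions, response is judged by eye relative to controls, where 100 means complete control.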

rice (Oryza sativa) = experiment: Test B flooded paddy test; details: for Plant response rating, Flood, Rice: 250 g ai/ha, flooded paddy test, visual rating on 0 to 100 scale (0 no effect, 100 complete control) after 13 to 15 days; for Plant response rating, Rice: Flood (flooded paddy test), 13 to 15 days
Summary of the method: as §1

[2] = system: ducksalad (Heteranthera limosa); experiment: Test B flooded paddy test; details: for Plant response rating, Flood, Ducksalad: 250 g ai/ha, flooded paddy test, visual rating on 0 to 100 scale (0 no effect, 100 complete control) after 13 to 15 days; for Plant response rating, Ducksalad: Flood (flooded paddy test), 13 to 15 days
Summary of the method: as §1

[3] = system: umbrella sedge (Cyperus difformis); experiment: Test B flooded paddy test; details: for Plant response rating, Flood, Sedge, Umbrella: 250 g ai/ha, flooded paddy test, visual rating on 0 to 100 scale (0 no effect, 100 complete control) after 13 to 15 days; for Plant response rating, Sedge, Umbrella: Flood (flooded paddy test), 13 to 15 days
Summary of the method: as §1

corn (Zea mays) = experiment: Test B pre-/postemergence plant response
Source text: (§2) Seeds of plant species selected from blackgrass (Alopecurus myosuroides), downy bromegrass (Bromus tectorum), green foxtail (Setaria viridis), Italian ryegrass (Lolium multiflorum), wheat (Triticum aestivum), wild oat (Avena fatua), deadnettle (henbit deadnettle, Lamium amplexicaule), galium (catchweed bedstraw, Galium aparine), bermudagrass (Cynodon dactylon), Surinam grass (Brachiaria decumbens), cocklebur (Xanthium strumarium), corn (Zea mays), large crabgrass (Digitaria sanguinalis), woolly cupgrass (Eriochloa villosa), giant foxtail (Setaria faberii), goosegrass (Eleusine indica), johnsongrass (Sorghum halepense), kochia (Kochia scoparia), lambsquarters (Chenopodium album), morningglory (Ipomoea coccinea), nightshade (eastern black nightshade, Solanum ptycanthum), yellow nutsedge (Cyperus esculentus), pigweed (Amaranthus retroflexus), ragweed (common ragweed, Ambrosia elatior), Russian thistle (Salsola kali), soybean (Glycine max), sunflower (common oilseed sunflower, Helianthus annuus) and velvetleaf (Abutilon theophrasti) were planted into a blend of loam soil and sand and treated preemergence with test compounds formulated in a non-phytotoxic solvent mixture which included a surfactant.
(§3) At the same time, plants selected from these crop and weed species and also winter barley (Hordeum vulgare), canarygrass (Phalaris minor), chickweed (Stellaria media) and windgrass (Apera spica-venti) were planted in pots containing Redi-Earth® planting medium (Scotts Company, 14111 Scottslawn Road, Marysville, Ohio 43041) comprising spaghnum peat moss, vermiculite, wetting agent and starter nutrients and treated with postemergence applications of some of the test chemicals formulated in the same manner. Plants ranged in height from 2 to 18 cm (1- to 4-leaf stage) for postemergence treatments.
(§4) Treated plants and controls were maintained in a greenhouse for 13 to 15 days, after which time all treated plants were visually evaluated and compared to controls. Plant response ratings, summarized in Table B, are based on a scale of 0 to 100 where 0 is no effect and 100 is complete control. A dash (-) response means no test result.

[4] = system: bermudagrass (Cynodon dactylon); experiment: Test B pre-/postemergence plant response
Source text: as §2, §3, §4

[5] = system: blackgrass (Alopecurus myosuroides); experiment: Test B pre-/postemergence plant response
Source text: as §2, §3, §4

soybean (Glycine max) = experiment: Test B pre-/postemergence plant response
Source text: as §2, §3, §4

[6] = system: Italian ryegrass (Lolium multiflorum); experiment: Test B pre-/postemergence plant response
Source text: as §2, §3, §4

[7] = system: Surinam grass (Brachiaria decumbens); experiment: Test B pre-/postemergence plant response
Source text: as §2, §3, §4

[8] = system: cocklebur (Xanthium strumarium); experiment: Test B pre-/postemergence plant response
Source text: as §2, §3, §4

[9] = system: morningglory (Ipomoea coccinea); experiment: Test B pre-/postemergence plant response
Source text: as §2, §3, §4

[10] = system: ragweed (common ragweed, Ambrosia elatior); experiment: Test B pre-/postemergence plant response
Source text: as §2, §3, §4

[11] = 31 g ai/ha, scale of 0 to 100 where 0 is no effect and 100 is complete control
[12] = 62 g ai/ha, scale 0 to 100, 0 is no effect, 100 is complete control
[13] = 125 g ai/ha, scale 0 to 100, 0 is no effect, 100 is complete control
[14] = Postemergence, 31 g ai/ha, scale 0 to 100 (0 no effect, 100 complete control)
[15] = Postemergence, 62 g ai/ha, scale 0 (no effect) to 100 (complete control), 13 to 15 days
[16] = Postemergence, 125 g ai/ha, visual rating after 13 to 15 days, scale 0 (no effect) to 100 (complete control)
[17] = Postemergence, 250 g ai/ha, scale 0 to 100
[18] = Postemergence, 125 g ai/ha, scale 0 to 100 (0 no effect, 100 complete control), 13 to 15 days
[19] = 250 g ai/ha, Preemergence, 0 to 100 scale
[20] = Preemergence, 31 g ai/ha, scale 0 to 100 (0 no effect, 100 complete control)
[21] = Preemergence, 62 g ai/ha, scale 0 to 100 (0 no effect, 100 complete control)
[22] = Preemergence, 125 g ai/ha, 0 to 100 scale

Cc1ccc(-n2c(-c3ccccc3)ncc(C(=O)C3=C(O)CCCC3=O)c2=O)cc1 [Compound 8]
15: Plant response rating, Rice (rice (Oryza sativa); [13]) | Plant response rating, Corn (corn (Zea mays); [14])
75: Plant response rating, Corn (corn (Zea mays); [16]) | Plant response rating, Surinam Grass [7, 16] | Plant response rating, Morningglory [9, 14]
10: Plant response rating, Blackgrass [5, 15] | Plant response rating, Blackgrass [5, 16]
0: Plant response rating, Barnyardgrass [1, 11] | Plant response rating, Barnyardgrass [1, 12] | Plant response rating, Rice (rice (Oryza sativa); [11]) | Plant response rating, Rice (rice (Oryza sativa); [12])
98: Plant response rating, Soybean (soybean (Glycine max); [14]) | Plant response rating, Soybean (soybean (Glycine max); [15]) | Plant response rating, Soybean (soybean (Glycine max); [16])
100: Bermudagrass plant response rating [4, 17] | Soybean plant response rating (soybean (Glycine max); [17]) | Plant response rating, Cocklebur [8, 14] | Plant response rating, Cocklebur [8, 15] | Plant response rating, Cocklebur [8, 16] | Cocklebur plant response rating [8, 17] | Plant response rating, Morningglory [9, 16] | Morningglory plant response rating [9, 17] | Plant response rating, Ragweed [10, 15] | Plant response rating, Ragweed [10, 16] | Ragweed plant response rating [10, 17]
65: Plant response rating, Sedge, Umbrella [3, 12] | Plant response rating, Corn (corn (Zea mays); [15]) | Plant response rating, Surinam Grass [7, 15]
90: Plant response rating, Flood, Ducksalad [2] | Plant response rating, Morningglory [9, 15] | Plant response rating, Ragweed [10, 14]
30: Plant response rating, Ducksalad [2, 11] | Plant response rating, Sedge, Umbrella [3, 11] | Plant response rating, Ryegrass, Italian [6, 16]
20: Plant response rating, Barnyardgrass [1, 13] | Blackgrass plant response rating [5, 17] | Plant response rating, Ryegrass, Italian [6, 14] | Plant response rating, Ryegrass, Italian [6, 15]
60: Plant response rating, Bermudagrass [4, 14] | Plant response rating, Surinam Grass [7, 14]
80: Corn plant response rating (corn (Zea mays); [17]) | Surinam Grass plant response rating [7, 17]
45: Plant response rating, Flood, Barnyardgrass [1]
50: Plant response rating, Flood, Rice (rice (Oryza sativa)) | Ryegrass, Italian plant response rating [6, 17]
5: Plant response rating, Blackgrass [5, 14]
95: Plant response rating, Flood, Sedge, Umbrella [3] | Plant response rating, Bermudagrass [4, 18]
85: Plant response rating, Ducksalad [2, 12] | Plant response rating, Ducksalad [2, 13] | Plant response rating, Sedge, Umbrella [3, 13] | Plant response rating, Bermudagrass [4, 15]

Cc1ccccc1-n1c(-c2ccccc2)ncc(C(=O)C2=C(O)CCCC2=O)c1=O [Compound 12]
85: Plant response rating, Bermudagrass [4, 15] | Surinam Grass plant response rating [7, 17] | Morningglory plant response rating [9, 22]
60: Plant response rating, Soybean (soybean (Glycine max); [20]) | Plant response rating, Surinam Grass [7, 21] | Plant response rating, Morningglory [9, 15]
70: Plant response rating, Cocklebur [8, 14] | Plant response rating, Morningglory [9, 16]
25: Plant response rating, Ducksalad [2, 12] | Plant response rating, Corn (corn (Zea mays); [14]) | Plant response rating, Surinam Grass [7, 14] | Plant response rating, Cocklebur [8, 20]
35: Plant response rating, Ducksalad [2, 13] | Plant response rating, Surinam Grass [7, 20]
100: Plant response rating, Bermudagrass [4, 19] | Bermudagrass plant response rating [4, 17] | Plant response rating, Bermudagrass [4, 20] | Plant response rating, Bermudagrass [4, 21] | Bermudagrass plant response rating [4, 22] | Plant response rating, Soybean (soybean (Glycine max); [15]) | Plant response rating, Soybean (soybean (Glycine max); [16]) | Soybean plant response rating (soybean (Glycine max); [17]) | Plant response rating, Surinam Grass [7, 19] | Plant response rating, Cocklebur [8, 19] | Plant response rating, Cocklebur [8, 16] | Cocklebur plant response rating [8, 17] | Plant response rating, Morningglory [9, 19] | Plant response rating, Ragweed [10, 19] | Plant response rating, Ragweed [10, 14] | Plant response rating, Ragweed [10, 15] | Plant response rating, Ragweed [10, 16] | Ragweed plant response rating [10, 17] | Ragweed plant response rating [10, 22]
45: Plant response rating, Corn (corn (Zea mays); [16])
50: Plant response rating, Sedge, Umbrella [3, 13]
20: Plant response rating, Sedge, Umbrella [3, 11] | Blackgrass plant response rating [5, 17]
40: Plant response rating, Sedge, Umbrella [3, 12] | Plant response rating, Morningglory [9, 20]
30: Plant response rating, Corn (corn (Zea mays); [15])
65: Plant response rating, Flood, Sedge, Umbrella [3] | Plant response rating, Bermudagrass [4, 14] | Plant response rating, Soybean (soybean (Glycine max); [21]) | Plant response rating, Surinam Grass [7, 16]
95: Plant response rating, Soybean (soybean (Glycine max); [19]) | Surinam Grass plant response rating [7, 22] | Morningglory plant response rating [9, 17]
98: Plant response rating, Bermudagrass [4, 18] | Plant response rating, Soybean (soybean (Glycine max); [14]) | Plant response rating, Cocklebur [8, 15] | Cocklebur plant response rating [8, 22] | Plant response rating, Ragweed [10, 21]
55: Plant response rating, Flood, Ducksalad [2] | Plant response rating, Surinam Grass [7, 15] | Plant response rating, Morningglory [9, 21]
90: Plant response rating, Ragweed [10, 20]
75: Plant response rating, Corn (corn (Zea mays); [19]) | Corn plant response rating (corn (Zea mays); [17])
0: Plant response rating, Flood, Barnyardgrass [1] | Plant response rating, Barnyardgrass [1, 11] | Plant response rating, Barnyardgrass [1, 12] | Plant response rating, Barnyardgrass [1, 13] | Plant response rating, Flood, Rice (rice (Oryza sativa)) | Plant response rating, Rice (rice (Oryza sativa); [11]) | Plant response rating, Rice (rice (Oryza sativa); [12]) | Plant response rating, Rice (rice (Oryza sativa); [13]) | Plant response rating, Ducksalad [2, 11] | Plant response rating, Corn (corn (Zea mays); [20]) | Plant response rating, Corn (corn (Zea mays); [21]) | Plant response rating, Blackgrass [5, 20] | Plant response rating, Blackgrass [5, 21] | Plant response rating, Ryegrass, Italian [6, 19] | Plant response rating, Ryegrass, Italian [6, 14] | Plant response rating, Ryegrass, Italian [6, 15] | Plant response rating, Ryegrass, Italian [6, 20] | Plant response rating, Ryegrass, Italian [6, 21] | Ryegrass, Italian plant response rating [6, 22]
15: Corn plant response rating (corn (Zea mays); [22]) | Plant response rating, Morningglory [9, 14]
10: Plant response rating, Blackgrass [5, 19] | Plant response rating, Blackgrass [5, 14] | Plant response rating, Blackgrass [5, 15] | Plant response rating, Blackgrass [5, 16]
80: Soybean plant response rating (soybean (Glycine max); [22]) | Plant response rating, Cocklebur [8, 21]
5: Blackgrass plant response rating [5, 22] | Plant response rating, Ryegrass, Italian [6, 16] | Ryegrass, Italian plant response rating [6, 17]
